Data on twelve compounds can be found in patent US20200331850A1, “NOVEL SULFONAMIDE CARBOXAMIDE COMPOUNDS” (Inflazome Limited, priority 2017, published 2020).

Usually IC50 stands for the point on the concentration scale where inhibition reaches its midpoint. Broadly, the AUC is the area under the concentration-time curve, a measure of exposure. In general, half-life refers to how long it takes for the measured level to halve. What is called CL/F is clearance divided by bioavailability, as obtained after extravascular dosing. In general, Cmax refers to the peak of the concentration-time curve. Usually Tmax stands for the time at which the peak concentration occurs. By bioavailability is commonly meant the share of a dose that reaches the circulation, judged against a reference dose that is usually intravenous. A low value points to poor availability.

Counter-ions that a name gives are not always drawn.

The target in series [1] is T1, NLRP3 (Homo sapiens, UniProt Q96P20). The series is described as follows: Human whole blood IL1β release assay (LPS + nigericin, AlphaLisa IL-1β). Further details: Plate out 80 μl of whole blood containing 1βg/ml of LPS in 96-well, clear bottom cell culture plate; from tissue; host or cells: human whole blood from healthy donors, LPS-primed and nigericin-stimulated. In kind it is cell-based. The conditions noted are these: NLRP3 inhibitory activity in human whole blood, IL-1β release, 10 μM nigericin, read-out: HWB IC50. As to the method:
For systemic delivery, the ability to inhibit NLRP3 when the compounds are present within the bloodstream is of great importance. For this reason, the NLRP3 inhibitory activity of a number of compounds in human whole blood was investigated in accordance with the following protocol.
Human whole blood in Li-heparin tubes was obtained from healthy donors from a volunteer donor panel. • 1. Plate out 80 μl of whole blood containing 1βg/ml of LPS in 96-well, clear bottom cell culture plate (Corning #3585) • 2. Add 10 μl compound (8 points half-log dilution with 10 μM top dose) or vehicle (DMSO 0.1% FAC) to the appropriate wells • 3. Incubate for 3 hrs at 37° C., 5% CO2 • 4. Add 10 μl Nigericin (Sigma # N7143) (10 μM FAC) to all wells • 5. Incubate for 1 hr at 37° C., 5% CO2 • 6. At the end of the incubation period, spin plates at 300×g for 5 mins to pellet cells and remove 20 μl of supernatant and add to 96-well v-bottom plates for IL-1β analysis (note: these plates containing the supernatants can be stored at −80° C. to be analysed at a later date) • 7. IL-1β was measured according to the manufacturer protocol (Perkin Elmer-AlphaLisa IL-1 Kit AL220F-5000) • 8. IC50 data is fitted to a non-linear regression equation (log inhibitor vs response-variable slope 4-parameters)
(In general: Bead proximity is the source of the signal in Alpha formats.)

Series [2] is described as follows: PK protocol: pharmacokinetic parameters in male Sprague Dawley rats (intravenous or oral). In kind it is in vivo. The conditions noted are these: plasma, rat; for Vd: read-out: Vdss. As to the method:
Pharmacokinetic parameters were determined in male Sprague Dawley rats (Charles River, UK, 250-350 g; or Vital River Laboratory Animal Technology Co Ltd, Beijing, China, 7-9 weeks old). Animals were individually housed during the study and maintained under a 12 h light/dark cycle.
For intravenous administration, compounds were formulated as a solution in water or DMSO:PBS [10:90] in 2 mL/kg dosing volume and administered via tail vein. For oral administration, compounds were formulated as a solution in DMSO:water [10:90] in 5 mL/kg dosing volume and administered orally.
Serial blood samples (about 120-300 μL) were taken from each animal at each of 8 time-points post dose (0.083, 0.25, 0.5, 1, 2, 4, 8 and 24 h) or at each of 12 time-points post dose (0.03, 0.1, 0.17, 0.25, 0.5, 1, 2, 4, 6, 8, 12 and 24 h) or pre-dose and at each of 9 time-points post dose (0.25, 0.5, 1, 2, 4, 6, 8, 12 and 24 h). Samples were held on ice for no longer than 30 minutes before centrifugation (10,000 rpm (8,385 g) for 3 minutes; or 5,696 rpm (3,000 g) for 15 minutes) for plasma generation. Plasma was frozen on dry ice prior to bioanalysis. PK parameters were generated from LC-MS/MS data using Dotmatics or Phoenix WinNonlin 6.3 software.

Series [3] has as its target T1, NLRP3. The series is described as follows: THP-1 cells pyroptosis assay (LPS + nigericin, resazurin readout). The conditions noted are these: NLRP3 inhibitory activity in THP-1 cells, 1.0 μg/ml LPS, 5 μM nigericin. Also noted: Seed THP-1 cells (25,000 cells/well) containing 1.0 μg/ml LPS in 40 μl of RPMI medium; host or cells: THP-1 cells, LPS-primed and nigericin-stimulated. In kind it is cell-based. The text has this:
It is well established that the activation of NLRP3 leads to cell pyroptosis and this feature plays an important part in the manifestation of clinical disease (Yan-gang Liu et al., Cell Death & Disease, 2017, 8(2), e2579; Alexander Wree et al., Hepatology, 2014, 59(3), 898-910; Alex Baldwin et al., Journal of Medicinal Chemistry, 2016, 59(5), 1691-1710; Ema Ozaki et al., Journal of Inflammation Research, 2015, 8, 15-27; Zhen Xie & Gang Zhao, Neuroimmunology Neuroinflammation, 2014, 1(2), 60-65; Mattia Cocco et al., Journal of Medicinal Chemistry, 2014, 57(24), 10366-10382; T. Satoh et al., Cell Death & Disease, 2013, 4, e644). Therefore, it is anticipated that inhibitors of NLRP3 will block pyroptosis, as well as the release of pro-inflammatory cytokines (e.g. IL-1β) from the cell. THP-1 cells (ATCC # TIB-202) were grown in RPMI containing L-glutamine (Gibco #11835) supplemented with 1 mM sodium pyruvate (Sigma # S8636) and penicillin (100 units/ml)/streptomycin (0.1 mg/ml) (Sigma # P4333) in 10% Fetal Bovine Serum (FBS) (Sigma # F0804). The cells were routinely passaged and grown to confluency (˜10^6 cells/ml). On the day of the experiment, THP-1 cells were harvested and resuspended into RPMI medium (without FBS). The cells were then counted and viability (>90%) checked by Trypan blue (Sigma # T8154). Appropriate dilutions were made to give a concentration of 625,000 cells/ml. To this diluted cell solution was added LPS (Sigma # L4524) to give a […] Final Assay Concentration (FAC). 40 μl of the final preparation was aliquoted into each well of a 96-well plate. The plate thus prepared was used for compound screening. The following method step-by-step assay was followed for compound screening. • 1. Seed THP-1 cells (25,000 cells/well) containing 1.0 μg/ml LPS in 40 μl of RPMI medium (without FBS) in 96-well, black walled, clear bottom cell culture plates coated with poly-D-lysine (VWR #734-0317) • 2. Add 5 μl compound (8 points half-log dilution, with 10 μM top dose) or vehicle (DMSO 0.1% FAC) to the appropriate wells • 3. […] Add 5 μl nigericin (Sigma # N7143) (FAC 5 μM) to all wells • 5. […] At the end of the incubation period, spin plates at 300×g for 3 mins and remove supernatant • 7. Then add 50 μl of resazurin (Sigma # R7017) (FAC 100 μM resazurin in RPMI medium without FBS) and incubate plates for a further 1-2 hrs at 37° C. and 5% CO2 • 8. Plates were read in an Envision reader at Ex 560 nm and Em 590 nm • 9. IC50 data is fitted to a non-linear regression equation (log inhibitor vs response-variable slope 4-parameters) The results of the pyroptosis assay performed are summarised in Table 1 below as THP IC50.
On the technique in general: Alamar Blue is a resazurin reagent that responds to reducing activity.

The mark [4] stands for this setting: intravenous administration, 1 mg/kg.

T1 sequence (Q96P20 whole entry): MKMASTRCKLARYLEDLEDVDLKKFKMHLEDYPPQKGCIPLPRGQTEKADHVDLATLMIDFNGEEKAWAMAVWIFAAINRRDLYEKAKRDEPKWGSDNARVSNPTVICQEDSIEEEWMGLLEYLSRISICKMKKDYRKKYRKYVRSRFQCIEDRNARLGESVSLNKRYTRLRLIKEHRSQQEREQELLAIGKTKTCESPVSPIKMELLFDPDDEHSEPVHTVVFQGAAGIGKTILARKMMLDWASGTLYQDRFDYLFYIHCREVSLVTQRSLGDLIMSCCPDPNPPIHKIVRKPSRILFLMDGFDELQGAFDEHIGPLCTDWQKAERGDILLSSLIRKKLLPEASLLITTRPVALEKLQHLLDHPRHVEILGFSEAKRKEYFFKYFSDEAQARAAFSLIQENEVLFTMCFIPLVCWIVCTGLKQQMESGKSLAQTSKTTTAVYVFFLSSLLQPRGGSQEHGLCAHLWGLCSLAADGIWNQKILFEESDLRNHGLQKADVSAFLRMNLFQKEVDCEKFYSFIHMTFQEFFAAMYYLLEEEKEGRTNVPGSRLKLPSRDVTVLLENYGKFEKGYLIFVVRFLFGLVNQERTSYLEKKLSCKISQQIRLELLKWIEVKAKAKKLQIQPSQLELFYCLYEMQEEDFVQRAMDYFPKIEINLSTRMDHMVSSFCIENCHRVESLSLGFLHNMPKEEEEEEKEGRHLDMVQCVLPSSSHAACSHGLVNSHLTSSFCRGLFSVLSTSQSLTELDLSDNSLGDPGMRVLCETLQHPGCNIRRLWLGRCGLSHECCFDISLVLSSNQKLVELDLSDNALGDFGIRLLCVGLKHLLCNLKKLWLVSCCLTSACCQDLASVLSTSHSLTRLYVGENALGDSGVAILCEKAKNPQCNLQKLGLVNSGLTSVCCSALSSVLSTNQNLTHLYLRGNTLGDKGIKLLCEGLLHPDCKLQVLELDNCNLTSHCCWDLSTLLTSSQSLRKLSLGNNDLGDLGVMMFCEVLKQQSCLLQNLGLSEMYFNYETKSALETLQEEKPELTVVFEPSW

In the case of `CCN(CC)CCCS(=O)(=O)NC(=O)Nc1c2c(cc3c1CCC3)CCC2` [Example 3, 3-(Diethylamino)-N-((1,2,3,5,6,7-hexahydro-s-indacen-4-yl)carbamoyl)propane-1-sulfonamide, potassium salt], the IC50 in series [1] is not above 1000 nM. Also, in series [2] (setting [4]), the AUC was 1180 ng·h/mL, the clearance came out at 14.2 mL/min/kg, the half-life was 1.5 h and the Vd was 0.79 L/kg. For the same compound, in series [2] (oral administration, 3 mg/kg), the AUC is 2270 ng·h/mL, the CL/F worked out at 22.6 mL/min/kg, the peak level (Cmax) was 819 ng/mL and the Tmax is 0.42 h. In series [2] (oral administration, 3 mg/kg), this compound had a bioavailability of 64.1% and a half-life of 1.8 h.

Turning to `CN(C)CCCS(=O)(=O)NC(=O)Nc1c2c(cc3c1CCC3)CCC2` [Example 8, 3-(Dimethylamino)-N-((1,2,3,5,6,7-hexahydro-s-indacen-4-yl)carbamoyl)propane-1-sulfonamide, potassium salt], the IC50 in series [1] is not above 1000 nM. Also, in series [2] (setting [4]), the AUC was determined as 2350 ng·h/mL, the clearance was found to be 7.1 mL/min/kg, the half-life was 1.1 h and the Vd stood at 0.49 L/kg.

For `O=C(Nc1c2c(cc3c1CCC3)CCC2)NS(=O)(=O)CCN1CCC1` [Example 29, 2-(Azetidin-1-yl)-N-((1,2,3,5,6,7-hexahydro-s-indacen-4-yl)carbamoyl)ethane-1-sulfonamide, Potassium Salt], the IC50 in series [1] is not above 1000 nM. Further, in series [2] (setting [4]), the AUC was 2780 ng·h/mL, the clearance is 6 mL/min/kg, the half-life was 1.3 h and the Vd was 0.53 L/kg.

As to `CCN(CC)CCCS(=O)(=O)NC(=O)Nc1c(-c2cccnc2)cc(F)cc1C(C)C` [Example 37, 3-(Diethylamino)-N-((4-fluoro-2-isopropyl-6-(pyridin-3-yl)phenyl)carbamoyl)propane-1-sulfonamide], in series [1], the IC50 was not above 1000 nM. In addition, in series [2] (setting [4]), the area under the curve (AUC) was 591 ng·h/mL, the clearance is 28.2 mL/min/kg, the half-life is 0.9 h and the Vd turned out to be 0.55 L/kg.

For `CC(C)N1CC2(COC(CS(=O)(=O)NC(=O)Nc3c4c(cc5c3CCC5)CCC4)C2)C1` (stereo not drawn) [Example 77, N-((1,2,3,5,6,7-Hexahydro-s-indacen-4-yl)carbamoyl)-1-(2-isopropyl-6-oxa-2-azaspiro[3.4]octan-7-yl)methanesulfonamide, Potassium Salt], the IC50 in series [3] was 2000 to 10000 nM; in series [1] it was not above 7500 nM.

For `CN(C)CCCCS(=O)(=O)NC(=O)Nc1c2c(cc3c1CCC3)CCC2` [Example 82, 4-(Dimethylamino)-N-((1,2,3,5,6,7-hexahydro-s-indacen-4-yl)carbamoyl)butane-1-sulfonamide], the IC50 in series [3] was 1600 to 2000 nM; in series [1], not above 5000 nM.

For `O=C(Nc1c2c(cc3c1CCC3)CCC2)NS(=O)(=O)CCCCN1CCC1` [Example 86, 4-(Azetidin-1-yl)-N-((1,2,3,5,6,7-hexahydro-s-indacen-4-yl)carbamoyl)butane-1-sulfonamide], the IC50 in series [3] was 2000 to 10000 nM.

Consider `O=C(Nc1c2c(cc3c1CCC3)CCC2)NS(=O)(=O)C1(CN2CCC2)CC1` [Example 87, 1-(Azetidin-1-ylmethyl)-N-((1,2,3,5,6,7-hexahydro-s-indacen-4-yl)carbamoyl)cyclopropane-1-sulfonamide], for which the IC50 in series [3] was 1600 to 2000 nM.

As to `COCCC(=O)N(C)CCCS(=O)(=O)NC(=O)Nc1c2c(cc3c1CCC3)CCC2` [Example 94, N-(3-(N-((1,2,3,5,6,7-Hexahydro-s-indacen-4-yl)carbamoyl)sulfamoyl)propyl)-3-methoxy-N-methylpropanamide], the IC50 in series [3] lay in the range of 1600 to 2000 nM.

Consider `CC(C)c1cc(F)cc(C(C)C)c1NC(=O)NS(=O)(=O)CCCN(C)C` [Example 101, 3-(Dimethylamino)-N-((4-fluoro-2,6-diisopropylphenyl)carbamoyl)propane-1-sulfonamide], for which the IC50 in series [3] fell in the range of 2000 to 10000 nM.

On to `CC(C)c1cc(Cl)cc(C(C)C)c1NC(=O)NS(=O)(=O)CCCN(C)C` [Example 108, 3-(Dimethylamino)-N-((4-chloro-2,6-diisopropylphenyl)carbamoyl)propane-1-sulfonamide], for which, in series [3], the IC50 lay within 2000 to 10000 nM.

Consider `CC(C)c1cc(F)cc(-c2ccnc(C#N)c2)c1NC(=O)NS(=O)(=O)Cc1cccnc1` [Example 112, N-((2-(2-Cyanopyridin-4-yl)-4-fluoro-6-isopropylphenyl)carbamoyl)-1-(pyridin-3-yl)methanesulfonamide], for which, in series [3], the IC50 was 2000 to 10000 nM.
